Assay results: US11878965B2, “Inhibitors of peptidylarginine deiminases” (Gilead Sciences, Inc., priority 2020, dated 2024)

Target: human PAD4 (Homo sapiens (Human), UniProt Q9UM07)
Assay: In Vitro PAD4 BAEE Biochemical Assay
Conditions: geometric mean of multiple experiments
Procedure: The PCR product was ligated into linearized pET-SUMO vector (Invitrogen, Carlsbad, CA), which is part of the Champion™ pET SUMO Protein Expression System. After sequence verification for the correct orientation, the pET-SUMO-hPAD4 expression plasmid was transformed into BL21(DE3) cells.
E. Coli BL21(DE3) cells were inoculated in LB medium with kanamycin at 37° C. until A600 nm reached about 0.5. Protein expression was induced by addition of 0.5 mM IPTG (final) and continued overnight at 16° C. at 220 rpm.
Cells were harvested by centrifugation at 5000 rpm for 10 minutes at 4° C. The pellet was resuspended in 300 ml lysis buffer (20 mM Tris-HCl, pH 8.0, 1 mM EDTA, 500 mM NaCl, 1 mM (tris(2-carboxyethyl)phosphine) (TCEP), 10% glycerol, and 1% Triton X100 and EDTA free protease inhibitor) and lysed by 3× passage through a microfluidizer (Microfluidics, Newton, MA) at 18,000 psi. The cell lysate was clarified by centrifugation at 30,000 rpm for 60 minutes at 4° C. The supernatant was applied to a 5 ml Ni-HP (GE HealthCare Cat #17524701) column preequilibrated in Ni-A buffer (20 mM Tris-HCl, pH 8.0, 20 mM Imidazole, 1 mM TCEP, 10% glycerol, and 400 mM NaCl). Bound protein was eluted with a 0-100% linear gradient of 100 mL Ni-B buffer (Ni A buffer+0.5 M Imidazole).
The His-Sumo tag was cleaved using sumo protease (Thermo Fisher Cat #: 12588018) while dialyzing in buffer (20 mM Tris-HCl, pH 8.0, 1 mM EDTA, 500 mM NaCl, 1 mM TCEP, 10% glycerol). The protein was then reloaded onto a Ni-HP column for a reverse purification step and recovered in flow through fraction. The protein with His-Sumo tag removed was then polished using a 16/60 Superdex-200 gel filtration column with gel filtration buffer (20 mM Tris pH 8.0, NaCl 400 mM and 1 mM TCEP). The fractions containing the protein were pulled and frozen at −80° C.
In Vitro PAD4 BAEE Biochemical Assay
The enzymatic activity of human PAD4 was monitored in a biochemical assay in the presence or absence of compounds using the small peptidyl arginine mimic BAEE (Nα-Benzoyl-L-arginine ethyl ester hydrochloride) as substrate. PAD4 activity led to deimination of BAEE and release of ammonia. Levels of ammonia were monitored by using an amine coupling reaction and were indicative of PAD4 enzymatic activity.
One hundred nanoliters of test compounds dissolved in DMSO at various concentrations were dispensed into a 384-well black OptiPlate using a Labcyte Echo instrument. Ten microliters of a solution of recombinant PAD4 and calcium chloride diluted in PAD4 assay buffer (50 mM MOPS [3-(N-morpholino) propanesulfonic acid], pH 7.6; 50 mM sodium chloride; 0.05% Tween-20; 2 mM dithiothreitol) was added to the compound-containing plate and was incubated for 30 minutes at 25° C. Ten microliters of a solution of BAEE (Sigma-Aldrich #B4500) diluted in PAD4 assay buffer was then added to start the reaction. Final concentrations were 5 nM PAD4, 2 mM calcium chloride, and 3 mM BAEE. The reaction mixture was incubated at 25° C. for 2 hours and was stopped with the addition of 10 microliters of a solution of 75 mM EDTA (Ethylenediaminetetraacetic acid) in PAD4 assay buffer. Thirty microliters of detection solution (5 mM o-phthalaldehyde, 50 mM MOPS [3-(N-morpholino) propanesulfonic acid], pH 7.6; 50 mM sodium chloride; 0.05% Tween-20; 5 mM dithiothreitol) was then added and the reaction was incubated for 1 hour at 25° C. The level of fluorescent thiol-substituted isoindole resulting from the reaction of ammonia, o-phthalaldehyde, and dithiothreitol was measured on an Envision plate reader (PerkinElmer) with 405 nm excitation and 535 nm emission.

[1] = recombinant PAD4 5 nM, 2 mM calcium chloride, 3 mM BAEE substrate
[2] = human PAD4, BAEE substrate, 5 nM PAD4, 2 mM calcium chloride, 3 mM BAEE

human PAD4, sequence (Q9UM07 2-663): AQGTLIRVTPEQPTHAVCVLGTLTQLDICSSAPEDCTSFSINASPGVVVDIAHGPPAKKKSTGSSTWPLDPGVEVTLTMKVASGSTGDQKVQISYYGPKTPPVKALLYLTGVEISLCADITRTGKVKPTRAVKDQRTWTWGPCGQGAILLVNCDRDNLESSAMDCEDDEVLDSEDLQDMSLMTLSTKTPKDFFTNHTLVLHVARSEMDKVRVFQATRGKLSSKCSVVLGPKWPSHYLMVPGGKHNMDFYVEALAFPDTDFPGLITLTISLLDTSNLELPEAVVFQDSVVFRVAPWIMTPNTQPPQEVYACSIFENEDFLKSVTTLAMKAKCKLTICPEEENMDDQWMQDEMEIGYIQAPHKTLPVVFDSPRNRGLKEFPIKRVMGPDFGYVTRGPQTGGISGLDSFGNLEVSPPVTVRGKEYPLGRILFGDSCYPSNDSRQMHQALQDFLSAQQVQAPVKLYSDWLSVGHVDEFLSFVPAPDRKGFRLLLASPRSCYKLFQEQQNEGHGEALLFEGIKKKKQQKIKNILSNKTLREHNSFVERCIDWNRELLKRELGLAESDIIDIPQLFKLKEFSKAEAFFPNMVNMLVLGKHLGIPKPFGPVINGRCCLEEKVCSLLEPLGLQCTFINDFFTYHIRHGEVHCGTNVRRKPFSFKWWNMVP

Row | Structure (SMILES) | IC50 [1] [nM] | IC50 [2] [nM]
1 | COc1cc(C(=O)N2C[C@H](N)CCN2C)cc2nc(-c3cc4ccc([C@@H](C)NC(=O)c5nccc(C(F)(F)F)n5)nc4n3CC3CC3)n(C)c12 [Example 182, N-((R)-1-(2-(5-((R)-5-amino-2-methylhexahydropyridazine-1-carbonyl)-7-methoxy-1-methyl-1H-benzo[d]imidazol-2-yl)-1-(cyclopropylmethyl)-1H-pyrrolo[2,3-b]pyridin-6-yl)ethyl)-4-(trifluoromethyl)pyrimidine-2-carboxamide] | – | 104
2 | CCN(c1ccc2cc(-c3nc4cc(C(=O)N5CCC[C@@H](N)[C@H]5C)cc(OC)c4n3CCOC)n(CC3CC3)c2n1)S(C)(=O)=O [Example 41, N-(2-(5-((2R,3R)-3-amino-2-methylpiperidine-1-carbonyl)-7-methoxy-1-(2-methoxyethyl)-1H-benzo[d]imidazol-2-yl)-1-(cyclopropylmethyl)-1H-pyrrolo [2,3-b]pyridin-6-yl)-N-ethylmethanesulfonamide] | – | 229
3 | COc1cc(C(=O)N2C[C@H](N)CCN2C)cc2nc(-c3cc4ccc([C@@H](C)NC(=O)c5cc(C)nc(C)c5)nc4n3CC3CC3)n(C)c12 [Example 179, N-((R)-1-(2-(5-((R)-5-amino-2-methylhexahydropyridazine-1-carbonyl)-7-methoxy-1-methyl-1H-benzo[d]imidazol-2-yl)-1-(cyclopropylmethyl)-1H-pyrrolo[2,3-b]pyridin-6-yl)ethyl)-2,6-dimethylisonicotinamide] | – | 77.5
4 | COc1cc(C(=O)N2CCC[C@@H](N)C2)cc2nc(-c3cc4ccc(N(Cc5ccccc5)S(C)(=O)=O)nc4n3CC3CC3)n(C)c12 [Example 11, (R)-N-(2-(5-(3-aminopiperidine-1-carbonyl)-7-methoxy-1-methyl-1H-benzo[d]imidazol-2-yl)-1-(cyclopropylmethyl)-1H-pyrrolo [2,3-b]pyridin-6-yl)-N-benzylmethanesulfonamide] | – | 192
5 | COc1cc(C(=O)N2CCC[C@@H](N)[C@H]2C)cc2nc(-c3cc4ccc(N(C5CC5)S(C)(=O)=O)nc4n3CC3CC3)n(C)c12 [Example 31, N-(2-(5-((2R,3R)-3-amino-2-methylpiperidine-1-carbonyl)-7-methoxy-1-methyl-1H-benzo[d]imidazol-2-yl)-1-(cyclopropylmethyl)-1H-pyrrolo [2,3-b]pyridin-6-yl)-N-cyclopropylmethanesulfonamide] | – | 110
6 | COc1cc(C(=O)N2C[C@H](N)CCN2C)cc2nc(-c3cc4ccc([C@@H](C)NC(=O)c5ccccc5)nc4n3CC3CC3)n(C)c12 [Example 154, N-((R)-1-(2-(5-((R)-5-amino-2-methylhexahydropyridazine-1-carbonyl)-7-methoxy-1-methyl-1H-benzo[d]imidazol-2-yl)-1-(cyclopropylmethyl)-1H-pyrrolo[2,3-b]pyridin-6-yl)ethyl)benzamide] | – | 89.7
7 | COc1cc(C(=O)N2C[C@H](N)CCN2C)cc2nc(-c3cc4ccc([C@@H](C)NC(=O)c5c(C)cccc5C(F)(F)F)nc4n3CC3CC3)n(C)c12 [Example 184, N-((R)-1-(2-(5-((R)-5-amino-2-methylhexahydropyridazine-1-carbonyl)-7-methoxy-1-methyl-1H-benzo[d]imidazol-2-yl)-1-(cyclopropylmethyl)-1H-pyrrolo[2,3-b]pyridin-6-yl)ethyl)-2-methyl-6-(trifluoromethyl)benzamide] | – | 204

Other lines, results leading:

Row | IC50 [1] [nM] | IC50 [2] [nM] | Structure (SMILES)
8 | 84.1 | – | C[C@@H](NC(=O)C1(C#N)CC1)c1ccc2cc(-c3nc4cc(C(=O)N5C[C@H](N)[C@@H]6CC[C@H]5C6)cc(F)c4n3C3CC3)n(CC3CC3)c2n1 [Example 303, N-((R)-1-(2-(5-((1S,4R,5R)-4-amino-2-azabicyclo[3.2.1]octane-2-carbonyl)-1-cyclopropyl-7-fluoro-1H-benzo[d]imidazol-2-yl)-1-(cyclopropylmethyl)-1H-pyrrolo[2,3-b]pyridin-6-yl)ethyl)-1-cyanocyclopropane-1-carboxamide]
9 | – | 83.3 | COc1cc(C(=O)N2C[C@H](N)[C@@H]3CC[C@H]2C3)cc2nc(-c3cc4ccc([C@@H](C)NC(=O)C56CC(Cl)(C5)C6)nc4n3CC3CC3)n(C)c12 [Example 229, N-((R)-1-(2-(5-((1S,4R,5R)-4-amino-2-azabicyclo[3.2.1]octane-2-carbonyl)-7-methoxy-1-methyl-1H-benzo[d]imidazol-2-yl)-1-(cyclopropylmethyl)-1H-pyrrolo[2,3-b]pyridin-6-yl)ethyl)-3-chlorobicyclo[1.1.1]pentane-1-carboxamide]
10 | 48.6 | – | C[C@@H](NC(=O)C1CCOCC1)c1ccc2cc(-c3nc4cc(C(=O)N5C[C@H](N)[C@@H]6CC[C@H]5C6)cc(F)c4n3C3CC3)n(CC3CC3)c2n1 [Example 304, N-((R)-1-(2-(5-((1S,4R,5R)-4-amino-2-azabicyclo[3.2.1]octane-2-carbonyl)-1-cyclopropyl-7-fluoro-1H-benzo[d]imidazol-2-yl)-1-(cyclopropylmethyl)-1H-pyrrolo[2,3-b]pyridin-6-yl)ethyl)tetrahydro-2H-pyran-4-carboxamide]
11 | 65.5 | – | COc1cc(C(=O)N2C[C@H](N)[C@@H]3CC[C@H]2C3)cc2nc(-c3cc4ccc([C@@H](C)NC(=O)c5c(F)cccc5F)nc4n3CC3CC3)n(C)c12 [Example 295, N-((R)-1-(2-(5-((1S,4R,5R)-4-amino-2-azabicyclo[3.2.1]octane-2-carbonyl)-7-methoxy-1-methyl-1H-benzo[d]imidazol-2-yl)-1-(cyclopropylmethyl)-1H-pyrrolo[2,3-b]pyridin-6-yl)ethyl)-2,6-difluorobenzamide]
12 | – | 138 | COc1cc(C(=O)N2C[C@H](N)CC[C@@H]2C)cc2nc(-c3cc4ccc(-c5cccnc5-c5cncs5)nc4n3CC3CC3)n(C)c12 [Example 267, ((2S,5R)-5-amino-2-methylpiperidin-1-yl)(2-(1-(cyclopropylmethyl)-6-(2-(thiazol-5-yl)pyridin-3-yl)-1H-pyrrolo[2,3-b]pyridin-2-yl)-7-methoxy-1-methyl-1H-benzo[d]imidazol-5-yl)methanone]
13 | – | 1820 | COc1cc(C(=O)N2C[C@H](N)CC[C@@H]2C)cc2nc(-c3cc4ccc(C(=O)N(C)c5ccccc5)nc4n3CC3CC3)n(C)c12 [Example 252, 2-(5-((2S,5R)-5-amino-2-methylpiperidine-1-carbonyl)-7-methoxy-1-methyl-1H-benzo[d]imidazol-2-yl)-1-(cyclopropylmethyl)-N-methyl-N-phenyl-1H-pyrrolo[2,3-b]pyridine-6-carboxamide]
14 | 253 | – | COc1cc(C(=O)N2C[C@H](N)[C@@H]3CC[C@H]2C3)cc2nc(-c3cc4ccc([C@@H](C)NC(=O)C(C)(C)C)nc4n3CC(C)(C)O)n(C)c12 [Example 330, N-((R)-1-(2-(5-((1S,4R,5R)-4-amino-2-azabicyclo[3.2.1]octane-2-carbonyl)-7-methoxy-1-methyl-1H-benzo[d]imidazol-2-yl)-1-(2-hydroxy-2-methylpropyl)-1H-pyrrolo[2,3-b]pyridin-6-yl)ethyl)pivalamide]
15 | 113 | – | COc1cc(C(=O)N2C[C@H](N)[C@@H]3CC[C@H]2C3)cc2nc(-c3cc4ccc([C@@H](C)NC(=O)c5ccc(C(F)(F)F)nc5)nc4n3CC3CC3)n(C)c12 [Example 313, N-((R)-1-(2-(5-((1S,4R,5R)-4-amino-2-azabicyclo[3.2.1]octane-2-carbonyl)-7-methoxy-1-methyl-1H-benzo[d]imidazol-2-yl)-1-(cyclopropylmethyl)-1H-pyrrolo[2,3-b]pyridin-6-yl)ethyl)-6-(trifluoromethyl)nicotinamide]
